In one data set the test system is Mais. The note with it: in vivo. The source says:
(§1) Post-emergence-Test Lösungsmittel: 5 Gewichtsteile Aceton Emulgator: 1 Gewichtsteil Alkylarylpolyglykolether
(§2) Zur Herstellung einer zweckmäßigen Wirkstoffzubereitung vermischt man 1 Gewichtsteil Wirkstoff mit der angegebenen Menge Lösungsmittel, gibt die angegebene Menge Emulgator zu und verdünnt das Konzentrat mit Wasser auf die gewünschte Konzentration.
(§3) Mit der Wirkstoffzubereitung spritzt man Testpflanzen, welch eine Höhe von 5 - 15 cm haben so, daß die jeweils gewünschten Wirkstoffmengen pro Flächeneinheit ausgebracht werden. Die Konzentration der Spritzbrühe wird so gewählt, daß in 2000 l Wasser/ha die jeweils gewünschten Wirkstoffmengen ausgebracht werden. Nach drei Wochen wird der Schädigungsgrad der Pflanzen bonitiert in % Schädigung im Vergleich zur Entwicklung der unbehandelten Kontrolle. Es bedeuten: 0 % = keine Wirkung (wie unbehandelte Kontrolle) 100 % = totale Vernichtung

Data set [1] concerns Unkräuter, wie z. B. Amaranthus, Chenopodium, Ipomoea, Portulak und Solanum. The data set is described as follows: Post-emergence test (herbicidal action on weeds). Type of data set: in vivo. The note with it: post-emergence spray on test plants 5 - 15 cm high, 2000 l Wasser/ha; damage rated after three weeks against untreated control; stated in comparison with Vergleichssubstanz (A).
Source text: as §1, §2, §3

The next data set concerns Baumwollpflanzen. In words: Defoliation and desiccation of the leaves of cotton. Type of data set: in vivo, Baumwolle. As to conditions: cotton plants in the greenhouse, 5th leaf fully unfolded, sprayed dripping wet; rated after 1 week against control plants (scale 0, +, ++, +++). The source says:
Entlaubung und Austrocknung der Blätter bei Baumwolle
Lösungsmittel: 30 Gewichtsteile Dimethylformamid Emulgator: 1 Gewichtsteil Polyoxyethylen-Sorbitan-Monolaurat
Zur Herstellung einer zweckmäßigen Wirkstoffzubereitung vermischt man 1 Gewichtsteil Wirkstoff mit den angegebenen Mengen Lösungsmittel und Emulgator und füllt mit Wasser auf die gewünschte Konzentration auf.
Baumwollpflanzen werden im Gewächshaus bis zur vollen Entfaltung des 5. Folgeblattes angezogen. In diesem Stadium werden die Pflanzen tropfnaß mit den Wirkstoffzubereitungen besprüht. Nach 1 Woche werden der Blattfall und das Austrocknen der Blätter im Vergleich zu den Kontrollpflanzen bonitiert. Es bedeuten: 0 kein Austrocknen der Blätter, kein Blattfall + leichtes Austrocknen der Blätter, geringer Blattfall ++ starkes Austrocknen der Blätter, starker Blattfall +++ sehr starkes Austrocknen der Blätter, sehr starker Blattfall

The structures appear in SMILES notation.

`COC(=O)CC(Br)c1cc(Oc2c(Cl)cc(C(F)(F)F)cc2Cl)ccc1Cl` (stereo not drawn) [Beispiel 4, 3-Brom-3-[3-(2,6-dichlor-4-trifluormethyl-phenoxy)-6-chlorphenyl]-propionsäuremethylester]: in the data set with Mais, the “Selektivität in Mais” value is on record as “guter Selektivität”. The “Wirkung gegen Unkräuter” value in data set [1] is recorded as “erheblich stärkere Wirkung”.

Consider `COC(=O)C(Br)Cc1cc(Oc2c(Cl)cc(C(F)(F)F)cc2Cl)c(Cl)cc1Cl` (stereo not drawn) [Beispiel 2, 2-Brom-3-[3-(2,6-dichlor-4-trifluormethyl-phenoxy)-4,6-dichlorphenyl]-propionsäuremethylester], for which the “Selektivität in Mais” value in the data set with Mais is “guter Selektivität”. For the same molecule, the “Wirkung gegen Unkräuter” value in data set [1] is given as “erheblich stärkere Wirkung”.

Consider `COC(=O)C(Cl)Cc1cc(Oc2c(Cl)cc(C(F)(F)F)cc2Cl)ccc1Cl` (stereo not drawn) [Beispiel 1, 2-Chlor-3-[3-(2,6-dichlor-4-trifluormethyl-phenoxy)-6-chlor-phenyl]-propionsäure-methylester], for which, in the data set on Baumwollpflanzen, the “Austrocknen der Blätter” value is “sehr starkes” and the Blattfall result is on record as “sehr starken”. Moreover, the “Selektivität in Mais” value in the data set on Mais is reported as “guter Selektivität”. Besides, the “Wirkung gegen Unkräuter” value in data set [1] is “erheblich stärkere Wirkung”.

Take `COC(=O)CCc1cc(Oc2c(Cl)cc(C(F)(F)F)cc2Cl)ccc1Cl` [Beispiel 3, 3-[3-(2,6-dichlor-4-trifluormethyl-phenoxy)-6-chlor-phenyl]-propionsäuremethylester]: in the data set on Baumwollpflanzen, the “Austrocknen der Blätter” value is given as “sehr starkes” and the Blattfall result is reported as “sehr starken”. The “Selektivität in Mais” value in the data set on Mais is given as “guter Selektivität”. Also, in data set [1], the “Wirkung gegen Unkräuter” value is recorded as “erheblich stärkere Wirkung”.

The record behind these values is patent EP0313908A2, “Halogen-substituted phenoxyphenylpropionic acid derivatives” (BAYER AG, priority 1987, dated 1989).
